From ChEMBL document CHEMBL6121000, “Corosolic acid and its derivatives targeting MCCC1 against insulin resistance and their hypoglycemic effect on type 2 diabetic mice” (Eur J Med Chem, 2025)
Values after ≈ are worked out from the molar mass of the structure shown. Active and inactive are the calls of the source. No cut-off for these calls is given here.

How the values were obtained:
[1] = system: HepG2; test: Inhibition of insulin resistance in human HepG2 cells assessed as restoration of GlcN-reduced MCCC1 level at 40 uM preincubated for 1 hr followed by GlcN treatment for 18 hrs by Western blot analysis; assay type: functional, cell-based; details: time 19.0 hrs
[2] = system: Mus musculus; test: Hypoglycemic activity in HFD-fed STZ-induced diabetic C57BL/6J mouse model assessed as increase in GLUT4 level in liver at 10 to 20 mg/kg, po administered everyday for 3 weeks by Western blot analysis; assay type: functional, organism-based; details: dose 10-20 mg/kg
[3] = system: Mus musculus; test: Hypoglycemic activity in HFD-fed STZ-induced diabetic C57BL/6J mouse model assessed as improvement in total cholesterol level in liver at 10 to 20 mg/kg, po administered everyday for 3 weeks; assay type: functional, organism-based; details: dose 10-20 mg/kg
[4] = system: HepG2; test: Lipid lowering activity in human HepG2 cells assessed as inhibition of FFA-induced triglyceride content at 20 uM preincubated for 1 hr followed by FFA treatment for 24 hrs relative to control; assay type: functional
[5] = system: HepG2; test: Induction of glucose uptake in human HepG2 cells assessed as increase in GlcN-reduced AKT phosphorylation at 40 uM preincubated for 1 hr followed by GlcN addition measured after 18 hrs in presence of VPA by Western blot analysis; assay type: functional, cell-based; details: time 19.0 hrs
[6] = system: Mus musculus; test: Hypoglycemic activity in HFD-fed STZ-induced diabetic C57BL/6J mouse model assessed as increase in hepatic glycogen synthesis at 10 to 20 mg/kg, po administered everyday for 3 weeks; assay type: functional, organism-based; details: dose 10-20 mg/kg
[7] = target: T1, Methylcrotonoyl-CoA carboxylase subunit alpha, mitochondrial (Homo sapiens) (UniProt Q96RQ3); test: Binding affinity to MCCC1 in human HepG2 cells assessed as thermal stability at 40 uM incubated for 1 hr followed by heat exposure for 3 mins by CETSA; assay type: cell-based
T1 sequence (whole entry): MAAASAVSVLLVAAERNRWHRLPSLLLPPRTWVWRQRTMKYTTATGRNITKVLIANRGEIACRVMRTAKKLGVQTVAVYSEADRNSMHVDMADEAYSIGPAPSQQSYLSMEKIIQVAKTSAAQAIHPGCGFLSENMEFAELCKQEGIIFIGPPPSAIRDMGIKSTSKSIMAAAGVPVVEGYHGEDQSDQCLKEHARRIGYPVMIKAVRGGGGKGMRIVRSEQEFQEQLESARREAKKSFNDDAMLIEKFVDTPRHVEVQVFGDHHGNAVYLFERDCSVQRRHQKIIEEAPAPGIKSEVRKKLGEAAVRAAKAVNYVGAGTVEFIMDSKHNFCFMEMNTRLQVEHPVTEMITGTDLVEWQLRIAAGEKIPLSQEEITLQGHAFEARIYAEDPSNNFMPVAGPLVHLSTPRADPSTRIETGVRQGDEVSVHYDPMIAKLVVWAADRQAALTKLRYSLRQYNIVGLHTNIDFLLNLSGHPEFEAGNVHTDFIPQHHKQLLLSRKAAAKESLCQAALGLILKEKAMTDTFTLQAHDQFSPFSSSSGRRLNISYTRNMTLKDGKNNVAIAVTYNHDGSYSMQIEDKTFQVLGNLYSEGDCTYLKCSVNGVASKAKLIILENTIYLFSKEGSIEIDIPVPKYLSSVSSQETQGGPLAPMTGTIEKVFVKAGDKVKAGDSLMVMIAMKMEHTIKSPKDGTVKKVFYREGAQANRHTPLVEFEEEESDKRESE

[8] = system: HepG2; test: Induction of glucose uptake in human HepG2 cells assessed as increase in GlcN-reduced GLUT4 level at 2.5 to 20 uM preincubated for 1 hr followed by GlcN addition measured after 24 hrs by Western blot analysis; assay type: functional, cell-based; details: dose 2.5-20 µM, time 25.0 hrs
[9] = Toxicity in Sprague-Dawley rat assessed as damage in lungs at 20 mg/kg, po for 5 days; assay type: organism-based; details: in vivo, 120 h, time 5 day
[10] = system: HepG2; test: Inhibition of insulin resistance in human HepG2 cells assessed as decrease in GlcN-induced glucose production at 40 uM preincubated for 1 hr followed by GlcN treatment for 18 hrs and subsequent insulin stimulation for 20 mins in presence of VPA by glucose oxidase-peroxidase assay; assay type: functional, cell-based; details: time 19.33 hrs
[11] = system: HepG2; test: Induction of glucose uptake in human HepG2 cells assessed as increase in GlcN-reduced AKT phosphorylation at 2.5 to 20 uM preincubated for 1 hr followed by GlcN addition measured after 24 hrs by Western blot analysis; assay type: functional, cell-based; details: dose 2.5-20 µM, time 25.0 hrs
[12] = Cytotoxicity against human HepG2 cells assessed as cell viability at 80 uM incubated for 24 hrs by CCK8 assay relative to control; assay type: toxicity, cell-based; details: HepG2 cells, read-out: Activity
[13] = Toxicity in Sprague-Dawley rat assessed as damage in colon at 20 mg/kg, po for 5 days; assay type: organism-based; details: in vivo, 120 h, time 5 day
[14] = system: Mus musculus; test: Hypoglycemic activity in 12 hr-fasted STZ-induced diabetic C57BL/6J mouse model assessed as decrease in AUC of blood glucose level at 20 mg/kg, po measured upto 120 mins by insulin tolerance test relative to control; assay type: functional; set-up: scale not given: the % may be the effect or the level left; details: 2 h
[15] = system: HepG2; test: Lipid lowering activity in human HepG2 cells assessed as reduction in FFA-induced triglyceride content at 20 uM preincubated for 1 hr followed by FFA treatment for 24 hrs; assay type: functional, cell-based; details: time 25.0 hrs
[16] = target: T1, Methylcrotonoyl-CoA carboxylase subunit alpha, mitochondrial (Homo sapiens); test: Binding affinity to MCCC1 in human HepG2 cells assessed as reduction in pronase-mediated MCCC1 degradation at 40 to 80 uM preincubated for 1 hr followed by pronase addition measured after 10 mins by DARTS assay; assay type: cell-based; details: dose 40-80 µM, time 70.0 min
[17] = Toxicity in Sprague-Dawley rat assessed as damage in liver at 20 mg/kg, po for 5 days; assay type: organism-based; details: in vivo, 120 h, time 5 day
[18] = system: HepG2; test: Inhibition of insulin resistance in human HepG2 cells assessed as restoration of GlcN-reduced MCCC1 level at 40 uM preincubated for 1 hr followed by GlcN treatment for 18 hrs in presence of VPA by Western blot analysis; assay type: functional, cell-based; details: time 19.0 hrs
[19] = system: HepG2; test: Induction of glucose uptake in human HepG2 cells assessed as increase in GlcN-reduced GSK-3beta phosphorylation at 2.5 to 20 uM preincubated for 1 hr followed by GlcN addition measured after 24 hrs by Western blot analysis; assay type: functional, cell-based; details: dose 2.5-20 µM, time 25.0 hrs
[20] = system: Mus musculus; test: Hypoglycemic activity in HFD-fed STZ-induced diabetic C57BL/6J mouse model assessed as increase in AKT phosphorylation in liver at 10 to 20 mg/kg, po administered everyday for 3 weeks by Western blot analysis; assay type: functional, organism-based; details: dose 10-20 mg/kg
[21] = system: HepG2; test: Inhibition of insulin resistance in human HepG2 cells assessed as decrease in GlcN-induced glucose production at 20 uM preincubated for 1 hr followed by GlcN treatment for 18 hrs and subsequent insulin stimulation for 20 mins; assay type: functional, cell-based; details: time 19.33 hrs
[22] = system: HEK293; test: Cytotoxicity against HEK293 cells assessed as cell viability at 40 to 320 uM incubated for 24 hrs by CCK8 assay relative to control; assay type: toxicity, cell-based; details: human, hek293, 24 h, dose 40-320 µM
[23] = system: Mus musculus; test: Hypoglycemic activity in HFD-fed STZ-induced diabetic C57BL/6J mouse model assessed as reversal of diabetes-reduced MCCC1 level in liver at 10 to 20 mg/kg, po administered everyday for 3 weeks by Western blot analysis; assay type: functional, organism-based; details: dose 10-20 mg/kg
[24] = Solubility of compound in PBS; assay type: physicochemical
[25] = system: Mus musculus; test: Hypoglycemic activity in HFD-fed STZ-induced diabetic C57BL/6J mouse model assessed as decrease in blood glucose level at 10 to 20 mg/kg, po administered everyday for 3 weeks; assay type: functional, organism-based; details: dose 10-20 mg/kg
[26] = Toxicity in Sprague-Dawley rat assessed as reduction in number of crypts in colon tissue at 20 mg/kg, po for 5 days; assay type: organism-based; details: in vivo, 120 h, time 5 day
[27] = Toxicity in Sprague-Dawley rat assessed as damage in spleen at 20 mg/kg, po for 5 days; assay type: organism-based; details: in vivo, 120 h, time 5 day
[28] = Toxicity in Sprague-Dawley rat assessed as inflammatory cell infiltration in colon tissue at 20 mg/kg, po for 5 days; assay type: organism-based; details: in vivo, 120 h, time 5 day
[29] = Toxicity in Sprague-Dawley rat assessed as damage in heart at 20 mg/kg, po for 5 days; assay type: organism-based; details: in vivo, 120 h, time 5 day
[30] = system: HepG2; test: Inhibition of insulin resistance-associated inflammation in human HepG2 cells assessed as increase in GlcN-reduced I-kaapaB-alpha level at 2.5 to 20 uM preincubated for 1 hr followed by GlcN addition measured after 24 hrs by Western blot analysis; assay type: functional, cell-based; details: dose 2.5-20 µM
[31] = system: Mus musculus; test: Hypoglycemic activity in HFD-fed STZ-induced diabetic C57BL/6J mouse model assessed as improvement in weight loss at 10 to 20 mg/kg, po administered everyday for 3 weeks; assay type: functional, organism-based; details: dose 10-20 mg/kg
[32] = system: Mus musculus; test: Hypoglycemic activity in HFD-fed STZ-induced diabetic C57BL/6J mouse model assessed as reduction in glucose production at 10 to 20 mg/kg, po administered everyday for 3 weeks; assay type: functional, organism-based; details: dose 10-20 mg/kg
[33] = system: Mus musculus; test: Hypoglycemic activity in HFD-fed STZ-induced diabetic C57BL/6J mouse model assessed as improvement in triglyceride level in liver at 10 to 20 mg/kg, po administered everyday for 3 weeks; assay type: functional, organism-based; details: dose 10-20 mg/kg
[34] = system: Mus musculus; test: Hypoglycemic activity in 12 hr-fasted STZ-induced diabetic C57BL/6J mouse model assessed as decrease in blood glucose level at 20 mg/kg, po measured for 30 to 90 mins by insulin tolerance test; assay type: functional, organism-based; details: time 30-90 min

C[C@H]1[C@H](C)CC[C@]2(C(=O)NCC(=O)O)CC[C@]3(C)C(=CC[C@@H]4[C@@]5(C)C[C@@H](O)[C@H](O)C(C)(C)[C@@H]5CC[C@]43C)[C@H]12
inhibition [1]: Active | Activity [2]: Active | Activity [3]: Active | inhibition at 20 µM [4]: 59.5% | Activity [5]: inactive | Activity [6]: Active | Activity [7]: Active | Activity [8]: Active | Activity [9]: Non-toxic | inhibition [10]: inactive | Activity [11]: Active | viability at 24 h, 80 µM [12]: > 80% | Activity [13]: Non-toxic | Activity [14]: 19.4% | Activity [15]: Active | Activity [16]: Active | Activity [17]: Non-toxic | inhibition [18]: inactive | Activity [19]: Active | Activity [20]: Active | inhibition [21]: Active | Activity [22]: Non-toxic | Activity [23]: Active | solubility [24]: 3.98 mM (≈ 2110 µg/mL) | Activity [25]: Active; Activity Similar To Metformin At 200 Mg/Kg | Activity [26]: Non-toxic | Activity [27]: Non-toxic | Activity [28]: Non-toxic | Activity [29]: Non-toxic | inhibition [30]: Active | Activity [31]: Active | Activity [32]: Active | Activity [33]: Active | Activity [34]: Active
